Tested on: G. duodenalis BRIS/91/HEPU/1279
Assay: Primary Giardia screen at 10 µM (live-cell imaging, automated counting)
Type: cell-based, Giardia duodenalis
Outline: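 Percent growth versus 0.2% DMSO vehicle, background-corrected with media-only wells, is reported at 24 and 48 h from automated live-cell counts. Testing used 10 μM final in a 3% O2 atmosphere, with plate quality checked by Z' factor.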

Row | SMILES | % Inhibition n=1 48h (48 h, first singlicate assay) | also measured
1 | COc1ccc(N2CC(c3noc(-c4ccc(C(C)(C)C)cc4)n3)CC2=O)cc1 (centres unmarked) [SN00801793] | 0.0% | –
2 | Cc1nccc2[nH]c(=O)c(C(=O)NCCCN(C)C3CCCCC3)cc12 [SN00794671] | 0.0% | –
3 | CCn1c(CN2Cc3ccccc3C[C@H]2C(N)=O)nc2cc(S(=O)(=O)N3CCCCC3)ccc21 [SN00773766] | 10.0% | –
4 | COc1cccc(-c2noc(-c3cc(N4CCN(C(C)=O)CC4)nc4ccccc34)n2)c1OC [SN00796396] | 7.7% | –
5 | CC(C)(C)OC(=O)N1CCCC(N(Cc2ccccc2)C(=O)Cc2csc(-c3cccnc3)n2)C1 (centres unmarked) [SN00774555] | 0.0% | –
6 | COc1cccc(CNC(=O)Cn2nc(C(=O)Nc3ccccc3)ccc2=O)c1 [SN00793567] | 4.7% | –
7 | O=C(CN1CCN(Cc2ccccc2)C1=O)NCc1ccc(Cl)cc1 [SN00784814] | 0.0% | –
8 | O=S(=O)(NCCC1=CCCCC1)c1ccc(-c2cnc(C3CCCC3)o2)s1 [SN00795100] | 27.9% | –
9 | O=C(Nc1ccc2nc(N3CCCN(c4ncccn4)CC3)cc(C(=O)O)c2c1)c1ccccc1F [SN00790270] | 0.0% | –
10 | O=C(Nc1cccc(C(=O)N2CCCC2C(=O)NCCc2ccccc2)c1)c1cccs1 (centres unmarked) [SN00794771] | 3.7% | –
11 | CCCCn1nnnc1CN1CCCC1Cn1cncn1 (centres unmarked) [SN00782373] | 0.0% | –
12 | Cc1ccc(CNC(=O)c2ccc(-n3cnc(NC(=O)C(C)C)c3)cc2)cc1 [SN00796570] | 29.7% | –
13 | O=C(NCC1CC1)c1nnn(-c2ccccc2)c1-c1ccncc1 [SN00796358] | 0.0% | –
14 | CCCCN(CCCC)S(=O)(=O)c1ccc2c(c1)CCCC(=O)N2 [SN00788526] | 27.2% | –
15 | O=C(NCC1CN2CCCC2CO1)c1ccccc1-n1cnnn1 (centres unmarked) [SN00781319] | 0.0% | –
16 | Nc1nc(N2CCN(C(=O)c3ccco3)CC2)ncc1C(=O)Nc1ccccc1 [SN00798744] | 0.0% | –
17 | Cc1ccccc1C(=O)Nc1cnc(N2CCNCC2)c(C(=O)N(C)Cc2ccccc2)c1 [SN00795318] | 15.2% | –
18 | Cc1cccc(-c2nc3sc(N4CCN(C(=O)NC(C)C)CC4)nn3c2NC(C)(C)C)c1 [SN00795313] | 0.0% | –
19 | COc1cccc(-c2noc(Nc3cccc(C)c3)n2)c1 [SN00791775] | 0.0% | –
20 | CC(=O)NC1CCCN(C(=O)c2cc3c(C)nn(Cc4ccc(F)cc4)c3s2)C1 (centres unmarked) [SN00774438] | 0.0% | –
21 | O=C(Nc1cccc(C(F)(F)F)c1)c1cnn2c(C(F)(F)F)cc(-c3ccco3)nc12 [SN00784128] | 9.2% | –
22 | CCOc1cc2c(cc1OCC)-n1cccc1C(c1cccc([N+](=O)[O-])c1)NC2 (centres unmarked) [SN00783996] | 10.3% | –
23 | O=C(CCN1CCC(c2n[nH]c(C3CC3)n2)CC1)Nc1ccccc1 [SN00772586] | 28.6% | –
24 | COc1ccc(-c2nnc(CN3C(=O)NC(C)(CCC(C)C)C3=O)o2)cc1 (centres unmarked) [SN00773994] | 0.0% | –
25 | COc1ccccc1NC(=O)c1cn2c3c(cc(Br)cc3c1=O)CC2 [SN00794326] | 11.4% | –
26 | CC1(C(=O)NC2CCCCCCC2)CN(S(C)(=O)=O)CC(=O)N1c1ccc(F)cc1 (centres unmarked) [SN00787900] | 11.9% | –
27 | CCC1c2ccsc2CCN1C(=O)C1CCN(S(=O)(=O)c2ccc(Cl)c([N+](=O)[O-])c2)CC1 (centres unmarked) [SN00771236] | 27.8% | –
28 | COCCS(=O)(=O)N1CCCC1Cn1ccnc1 (centres unmarked) [SN00782604] | 0.0% | –
29 | Cc1ccc([C@@H]2C[C@H](c3ccccc3)n3nnnc3N2)cc1 (relative stereo) [SN00783518] | 40.1% | Average % Inhibition 24h (24 h): 10.7%; % Inhibition n=1 24h (24 h, first singlicate assay): 21.3%; % Inhibition n=2 24h (24 h, re-assessment): 0.0%; Average % Inhibition 48h (48 h): 20.0%; % Inhibition n=2 48h (48 h, re-assessment): 0.0%
30 | Cc1cc2n(n1)CCCN2CC(=O)N1CCN(c2cccc(Cl)c2)CC1 [SN00791744] | 5.3% | –
